Experimental findings from ChEMBL document CHEMBL1857833, “Screening and optimization of specific chemical series against human African Trypanosomiasis (HAT)” are described below.

≈ marks a conversion by molar mass, not a printed value.

The IC50 is the concentration that inhibits the measured activity by half.

The subject of one series is Trypanosoma brucei. Kind of series: DNDI: Inhibition of Human African Trypanosomiasis, SBRI 427, in vitro. Format: functional, organism-based. The note with it: Trypanosoma brucei, SBRI 427; read-out: IC50.
Series [1] can be described thus: DNDI: Cytotoxicity against L929 mouse fibroblasts, 72 hour. The format is toxicity, cell-based. The note with it: mouse, L929 mouse fibroblasts.

For `O=c1cc(-c2ccccc2)[nH]c2cc(-c3ccc(F)cc3)nn12`, the IC50 in the series with Trypanosoma brucei was above 5 mg/L. Half-maximal inhibition in series [1] (IC50 at 72 h) required 10 mg/L (≈ 32.8 µM).
In the same order, the values of `N#Cc1nc(-c2ccccc2)oc1N` are above 5 mg/L and above 10 mg/L.
The like results for `Cc1ccc(CNC(c2nc(Cc3ccccc3)c(N3CCOCC3)o2)C2CC2)cc1` (configuration not stated) were, in that order, above 5 mg/L and above 10 mg/L.
In the case of `CCCCc1ccc(-c2nc(Nc3ccccn3)co2)cc1`, the IC50 in the series on Trypanosoma brucei is above 5 mg/L. The IC50 at 72 h in series [1] was above 10 mg/L.
In the same order, the values of `CCC(C)Oc1ccc(-c2nc(CNCCCN(C)C)co2)cc1` (configuration not stated) are above 5 mg/L and above 10 mg/L.
On to `c1ccc(-c2nc(C(NCCCn3ccnc3)C3CC3)oc2N2CCOCC2)cc1` (configuration not stated), for which the 50% inhibitory concentration (IC50) in the series with Trypanosoma brucei is above 5 mg/L. Further, the 50% inhibitory concentration (IC50) at 72 h in series [1] was above 10 mg/L.
In the same order, the values of `CCCCc1ccc(-c2nc(CNCCCN(CC)CC)co2)cc1` are 0.1 mg/L (≈ 0.291 µM) and 0.89 mg/L (≈ 2.59 µM).
In the same order, the values of `c1ccc(Cc2nc(C(NCc3ccco3)C3CC3)oc2N2CCOCC2)cc1` (configuration not stated) are above 5 mg/L and above 10 mg/L.
In the same order, the values of `O=C(NCC1C(O)=C(C(=O)c2ccccc2)C(=O)N1C(=O)OCc1ccccc1)OCc1ccccc1` (configuration not stated) are above 5 mg/L and 9.13 mg/L (≈ 18.2 µM).
As to `C/C(O)=C1\C(=O)NC(COCc2ccccc2)C1=O` (configuration not stated), the 50% inhibitory concentration (IC50) in the series on Trypanosoma brucei was above 5 mg/L. In addition, the IC50 at 72 h in series [1] was above 10 mg/L.
On to `CCCCCC(C)NCc1coc(-c2cc(Cl)ccc2O)n1` (configuration not stated), for which, in the series with Trypanosoma brucei, the IC50 was determined as 2.46 mg/L (≈ 7.62 µM). Besides, inhibition in series [1] was half-maximal at 2.33 mg/L (≈ 7.22 µM) (IC50 at 72 h).
Turning to `CCOCCCNC(c1nc(C(C)C)c(N2CCOCC2)o1)C1CC1` (configuration not stated), in the series with Trypanosoma brucei, the IC50 is above 5 mg/L. Moreover, the IC50 at 72 h in series [1] is above 10 mg/L.
With `C/C(O)=C1/C(=O)CN(C)C1=O`, the 50% inhibitory concentration (IC50) with Trypanosoma brucei is above 5 mg/L. Also, the IC50 at 72 h in series [1] was above 10 mg/L.
For the compound `Cc1ccc(CNC(CC(C)C)c2nc(-c3ccccc3)c(N3CCOCC3)o2)cc1` (configuration not stated), the half-inhibitory concentration (IC50) in the series on Trypanosoma brucei is 4.22 mg/L (≈ 10.1 µM). Besides, the IC50 at 72 h in series [1] was above 10 mg/L.
For `NCCCNc1cc(-c2ccccc2)nc2cc(-c3ccc(F)cc3)nn12`, in the series with Trypanosoma brucei, the IC50 amounted to 0.554 mg/L (≈ 1.53 µM). Inhibition in series [1] was half-maximal at 0.76 mg/L (≈ 2.1 µM) (IC50 at 72 h).
As for `CCCCCC(C)NCc1coc(-c2ccc3c(c2)OCO3)n1` (configuration not stated), in the series on Trypanosoma brucei, the half-inhibitory concentration (IC50) turned out to be 3.61 mg/L (≈ 11.4 µM). The same compound displayed a half-inhibitory concentration (IC50) at 72 h in series [1] of 10 mg/L (≈ 31.6 µM).
Take `CN(C)CCCNCc1coc(-c2ccc(OC3CCCC3)cc2)n1`: the half-maximal inhibitory concentration (IC50) in the series on Trypanosoma brucei was above 5 mg/L. In series [1], this compound gave an IC50 at 72 h above 10 mg/L.
For `CCC(CC)Oc1ccc(-c2nc(CNCCCN(C)C)co2)cc1`, the IC50 in the series with Trypanosoma brucei was above 5 mg/L. Also, the IC50 at 72 h in series [1] is above 10 mg/L.
In the case of `CC(C)COc1ccc(-c2nc(CNCCCN(C)C)co2)cc1`, the concentration for half-maximal inhibition (IC50) in the series on Trypanosoma brucei was above 5 mg/L. Moreover, the IC50 at 72 h in series [1] is above 10 mg/L.
For the compound `COc1ccc(CNC(CC(C)C)c2nc(C(C)C)c(N3CCOCC3)o2)cc1` (configuration not stated), the IC50 in the series on Trypanosoma brucei is above 5 mg/L. Moreover, the half-inhibitory concentration (IC50) at 72 h in series [1] was above 10 mg/L.
On to `CCCCCC(C)NCc1coc(-c2cccc(OCCCC)c2)n1` (configuration not stated), for which the concentration for half-maximal inhibition (IC50) in the series on Trypanosoma brucei is 1.02 mg/L (≈ 2.96 µM). This compound yielded a half-maximal inhibitory concentration (IC50) at 72 h in series [1] of 1.7 mg/L (≈ 4.93 µM).
As for `c1ccc(-c2nc(C(NCc3ccco3)C3CC3)oc2N2CCOCC2)cc1` (configuration not stated), in the series with Trypanosoma brucei, the IC50 is above 5 mg/L. For the same compound, the IC50 at 72 h in series [1] was above 10 mg/L.
The like results for `CCCCCCC/C(O)=C1\C(=O)NC(CC(C)C)C1=O` (configuration not stated) were, in that order, above 5 mg/L and above 10 mg/L.
Consider `c1ccc(Cc2nc(C(NCc3ccc4c(c3)OCO4)C3CC3)oc2N2CCOCC2)cc1` (configuration not stated), for which the IC50 in the series on Trypanosoma brucei is above 5 mg/L. The 50% inhibitory concentration (IC50) at 72 h in series [1] was above 10 mg/L.
The like results for `CCCCCC(C)NCc1coc(-c2cc(C(C)=O)ccc2O)n1` (configuration not stated) were, in that order, 2.32 mg/L (≈ 7.02 µM) and 3.47 mg/L (≈ 10.5 µM).
Consider `CCCCc1ccc(-c2nc(CNCCCN3CCOCC3)co2)cc1`, for which, in the series on Trypanosoma brucei, the IC50 was 0.34 mg/L (≈ 0.951 µM). This compound displayed a half-inhibitory concentration (IC50) at 72 h in series [1] of 2.08 mg/L (≈ 5.82 µM).
With `CCCCCCC/C(O)=C1/C(=O)CN(C)C1=O`, in the series on Trypanosoma brucei, the IC50 is above 5 mg/L. Moreover, in series [1], the IC50 at 72 h was above 10 mg/L.
The like results for `CCCCCC(C)NCc1coc(-c2ccc(OCCCC)c(OC)c2)n1` (configuration not stated) were, in that order, 0.38 mg/L (≈ 1.01 µM) and 1.48 mg/L (≈ 3.95 µM).
The like results for `CCCCc1ccc(-c2nc(CN3CCN(C(=O)OC(C)(C)C)CC3)co2)cc1` were, in that order, above 5 mg/L and above 10 mg/L.
For the compound `COC(=O)c1sccc1NC(N)=O`, in the series on Trypanosoma brucei, the IC50 was above 5 mg/L. Besides, in series [1], the concentration for half-maximal inhibition (IC50) at 72 h was above 10 mg/L.
In the case of `CCCCCC(C)NCc1coc(-c2ccc(OCc3ccc(F)cc3)cc2)n1` (configuration not stated), the half-maximal inhibitory concentration (IC50) with Trypanosoma brucei came out at 0.38 mg/L (≈ 0.958 µM). In series [1], this compound returned a concentration for half-maximal inhibition (IC50) at 72 h of 0.95 mg/L (≈ 2.4 µM).
With `CCCCCC(C)NCc1coc(-c2cc(C(F)(F)F)cc(C(F)(F)F)c2)n1` (configuration not stated), the IC50 in the series with Trypanosoma brucei was determined as 2.06 mg/L (≈ 5.04 µM). The half-maximal inhibitory concentration (IC50) at 72 h in series [1] is above 10 mg/L.
For the compound `O=C1CC(=O)N(C(=O)OCc2ccccc2)C1COCc1ccccc1` (configuration not stated), in the series on Trypanosoma brucei, the IC50 was above 5 mg/L. In addition, the concentration for half-maximal inhibition (IC50) at 72 h in series [1] was above 10 mg/L.
Consider `O=c1[nH]c(=O)c2sccc2[nH]1`, for which, in the series on Trypanosoma brucei, the 50% inhibitory concentration (IC50) was above 5 mg/L. In addition, the IC50 at 72 h in series [1] was above 10 mg/L.
For the compound `CCCCCC(C)NCc1coc(-c2ccccc2C#N)n1` (configuration not stated), in the series on Trypanosoma brucei, the IC50 is 3.76 mg/L (≈ 12.6 µM). The IC50 at 72 h in series [1] is above 10 mg/L.
As to `O=C(OC1=CC(=O)N(C(=O)OCc2ccccc2)C1COCc1ccccc1)c1ccccc1` (configuration not stated), in the series with Trypanosoma brucei, the IC50 is above 5 mg/L. This compound returned a 50% inhibitory concentration (IC50) at 72 h in series [1] above 10 mg/L.
